For this test, the target named is T1, hSTING (Homo sapiens, UniProt Q86WV6, G230A/H232R/R293Q/R71H).
T1 construct: host or cells: THP1-Dual KO-IFNAR2 cells
The test can be described thus: STING reporter assay (luciferase) in THP1-Dual KO-IFNAR2 cells stimulated with 2'3'cGAMP. It is filed as cell-based. Conditions: 2'3'cGAMP 15 μM, 24 h, luciferase reporter activity. The protocol: STING pathway activation by the compounds described herein is measured using THP1-Dual™ cells (KO-IFNAR2).
THP1-Dual™ KO-IFNAR2 Cells (obtained from invivogen) are maintained in RPMI, 10% FCS, 5 ml P/S, 2 mM L-glut, 10 mM Hepes, and 1 mM sodium pyruvate.
Compounds are spotted in empty 384 well tissue culture plates (Greiner 781182) by Echo for a final concentration of 0.0017-100 μM. Cells are plated into the TC plates at 40 μL per well, 2×10E6 cells/mL. For activation with STING ligand, 2′3′cGAMP (MW 718.38, obtained from Invivogen), is prepared in Optimem media.
The following solutions are prepared for each 1×384 plate: • Solution A: 2 mL Optimem with one of the following stimuli: • 60 uL of 10 mM 2′3′cGAMP->150 μM stock • Solution B: 2 mL Optimem with 60 μL Lipofectamine 2000->Incubate 5 min at RT
2 mL of solution A and 2 ml Solution B is mixed and incubated for 20 min at room temperature (RT). 20 uL of transfection solution (A+B) is added on top of the plated cells, with a final 2′3′cGAMP concentration of 15 μM. The plates are then centrifuged immediately at 340 g for 1 minute, after which they are incubated at 37° C., 5% CO2, >98% humidity for 24 h. Luciferase reporter activity is then measured. EC50 values are calculated by using standard methods known in the art.
Luciferase reporter assay: 10 μL of supernatant from the assay is transferred to white 384-plate with flat bottom and squared wells. One pouch of QUANTI-Luc™ Plus us dissolved in 25 mL of water. 100 μL of QLC Stabilizer per 25 mL of QUANTI-Luc™ Plus solution is added. 50 μL of QUANTI-Luc™ Plus/QLC solution per well is then added. Luminescence is measured on a Platereader (e.g., Spectramax I3X (Molecular Devices GF3637001)).
Luciferase reporter activity is then measured. EC50 values are calculated by using standard methods known in the art.

Molecules are shown by their SMILES. pEC50: −log10 of the molar value.

T1 sequence (Q86WV6 whole entry R71H/G230A/H232R/R293Q): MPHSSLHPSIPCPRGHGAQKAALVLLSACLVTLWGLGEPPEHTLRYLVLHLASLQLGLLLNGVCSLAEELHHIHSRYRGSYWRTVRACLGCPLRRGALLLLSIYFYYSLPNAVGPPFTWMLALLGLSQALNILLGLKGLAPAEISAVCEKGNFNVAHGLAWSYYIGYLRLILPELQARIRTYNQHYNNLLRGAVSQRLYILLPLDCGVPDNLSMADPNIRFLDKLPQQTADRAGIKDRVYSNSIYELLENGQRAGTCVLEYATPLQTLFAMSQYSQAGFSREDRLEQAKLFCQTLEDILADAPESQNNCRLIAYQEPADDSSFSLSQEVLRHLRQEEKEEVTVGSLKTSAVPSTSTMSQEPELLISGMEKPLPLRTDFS

`O=C(Nc1cnc(N2CCC(F)(F)CC2)cn1)Nc1c[nH]c2ccc(Cl)cc12` [Compound 189, 1-(5-chloro-1H-indol-3-yl)-3-(5-(4,4-difluoropiperidin-1-yl)pyrazin-2-yl)urea] showed a pEC50 of 6.70 to 7.40.

For `O=C(Nc1ccc(C2CC(F)(F)C2)c(Cl)c1)Nc1c[nH]c2ccc(Cl)cc12` [Compound 226, 1-(5-chloro-1H-indol-3-yl)-3-(3-chloro-4-(3,3-difluorocyclobutyl)phenyl)urea], the pEC50 is 6.70 to 7.40.

The molecule `COCCN(C(=O)Nc1c[nH]c2ccc(Cl)cc12)c1cnc(C2CCC(F)(F)CC2)c(Cl)c1` [Compound 228, 3-(5-chloro-1H-indol-3-yl)-1-(5-chloro-6-(4,4-difluorocyclohexyl)pyridin-3-yl)-1-(2-methoxyethyl)urea] showed a pEC50 of 6.00 to 6.70.

`O=C(Nc1cnc(N2CCC(F)(F)CC2)c(Cl)c1)Nc1c[nH]c2ccc(F)cc12` [Compound 193, 1-(5-chloro-6-(4,4-difluoropiperidin-1-yl)pyridin-3-yl)-3-(5-fluoro-1H-indol-3-yl)urea] showed a pEC50 of 6.70 to 7.40.

The molecule `O=C(Nc1cnc(C2CCC(F)(F)CC2)c(Cl)c1)Nc1c[nH]c2c(Br)cc(Cl)cc12` [Compound 247, 1-(7-bromo-5-chloro-1H-indol-3-yl)-3-(5-chloro-6-(4,4-difluorocyclohexyl)pyridin-3-yl)urea] gave a pEC50 of 6.00 to 6.70.

Take `COC(=O)c1cc(NC(=O)Nc2c[nH]c3ccccc23)cnc1C1CCC(F)(F)CC1` [Compound 265, methyl 5-(3-(1H-indol-3-yl)ureido)-2-(4,4-difluorocyclohexyl)nicotinate]: the pEC50 was 6.70 to 7.40.

For the molecule `CC1(C)OCC(c2ncc(NC(=O)Nc3c[nH]c4ccccc34)cc2Cl)CO1` [Compound 263, 1-(5-chloro-6-(2,2-dimethyl-1,3-dioxan-5-yl)pyridin-3-yl)-3-(1H-indol-3-yl)urea], the pEC50 is 6.00 to 6.70.

`O=C(Nc1cnc(N2CCC(F)(F)CC2)nc1)Nc1c[nH]c2ccccc12` [Compound 178, 1-(2-(4,4-difluoropiperidin-1-yl)pyrimidin-5-yl)-3-(1H-indol-3-yl)urea] had a pEC50 of 5.30 to 6.00.

Consider `O=C(Nc1cnc(N2CC3(CCOC3)C2)c(Cl)c1)Nc1c[nH]c2cc(F)c(F)cc12` [Compound 186, 1-(5-chloro-6-(6-oxa-2-azaspiro[3.4]octan-2-yl)pyridin-3-yl)-3-(5,6-difluoro-1H-indol-3-yl)urea], for which the pEC50 is 6.00 to 6.70.

`Cc1cc(NC(=O)Nc2c[nH]c3ccc(Cl)cc23)cnc1N1CC2(C1)CC(F)(F)C2` [Compound 129, 1-(5-chloro-1H-indol-3-yl)-3-(6-(6,6-difluoro-2-azaspiro[3.3]heptan-2-yl)-5-methylpyridin-3-yl)urea] gave a pEC50 of 6.70 to 7.40.

As for `C[C@H]1CN(c2ncc(NC(=O)Nc3c[nH]c4ccc(Cl)cc34)cc2Cl)CCN1` [Compound 296, (S)-1-(5-chloro-1H-indol-3-yl)-3-(5-chloro-6-(3-methylpiperazin-1-yl)pyridin-3-yl)urea], the pEC50 is 5.30 to 6.00.

With `O=C(Nc1cnc(N2CCC3(CC2)CC3)c(F)c1)Nc1c[nH]c2ccc(Cl)cc12` [Compound 240, 1-(5-chloro-1H-indol-3-yl)-3-(5-fluoro-6-(6-azaspiro[2.5]octan-6-yl)pyridin-3-yl)urea], the pEC50 is 6.70 to 7.40.

Molecule `O=C(Nc1ccc(N2CCC(F)(F)CC2)nc1)Nc1c[nH]c2ccc(F)cc12` [Compound 273, 1-(6-(4,4-difluoropiperidin-1-yl)pyridin-3-yl)-3-(5-fluoro-1H-indol-3-yl)urea] gave a pEC50 of 6.00 to 6.70.

`O=C(Nc1cnc(N2CCC(F)(F)CC2)c(CCO)c1)Nc1c[nH]c2cc(F)c(F)cc12` [Compound 143, 1-(5,6-difluoro-1H-indol-3-yl)-3-(6-(4,4-difluoropiperidin-1-yl)-5-(2-hydroxyethyl)pyridin-3-yl)urea]: the pEC50 is 6.00 to 6.70.

`Cc1ccc2[nH]cc(NC(=O)Nc3cnc(N4CCC(F)(F)CC4)c(C)c3)c2c1` [Compound 197, 1-(6-(4,4-difluoropiperidin-1-yl)-5-methylpyridin-3-yl)-3-(5-methyl-1H-indol-3-yl)urea] gave a pEC50 of 6.70 to 7.40.

Molecule `O=C(Nc1cnn(C2CCN(CCC(F)(F)F)CC2)c1)Nc1c[nH]c2ccc(Cl)cc12` [Compound 223, 1-(5-chloro-1H-indol-3-yl)-3-(1-(1-(3,3,3-trifluoropropyl)piperidin-4-yl)-1H-pyrazo1-4-yl)urea] gave a pEC50 of 5.30 to 6.00.

Consider `COC1CCN(c2ncc(NC(=O)Nc3c[nH]c4ccccc34)cc2C)CC1` [Compound 202, 1-(1H-indol-3-yl)-3-(6-(4-methoxypiperidin-1-yl)-5-methylpyridin-3-yl)urea], for which the pEC50 is 5.30 to 6.00.

On to `Cc1cc(NC(=O)Nc2c[nH]c3cc(F)c(F)cc23)cnc1N1CC2(C1)CC(F)(F)C2` [Compound 167, 1-(5,6-difluoro-1H-indol-3-yl)-3-(6-(6,6-difluoro-2-azaspiro[3.3]heptan-2-yl)-5-methylpyridin-3-yl)urea], for which the pEC50 is 6.00 to 6.70.

The molecule `Cc1nc(NC(=O)Nc2c[nH]c3cc(F)c(F)cc23)cnc1N1CCC(F)(F)CC1` [Compound 175, 1-(5,6-difluoro-1H-indol-3-yl)-3-(5-(4,4-difluoropiperidin-1-yl)-6-methylpyrazin-2-yl)urea] gave a pEC50 of 6.00 to 6.70.

On to `O=C(Nc1cnc(N2CCC(F)(F)CC2)c(Cl)c1)Nc1c[nH]c2cc(F)c(F)cc12` [Compound 199, 1-(5-chloro-6-(4,4-difluoropiperidin-1-yl)pyridin-3-yl)-3-(5,6-difluoro-1H-indol-3-yl)urea], for which the negative-log EC50 (pEC50) is 6.70 to 7.40.

As for `O=C(Nc1cnc(N2CC(C(F)(F)F)C2)c(Cl)c1)Nc1c[nH]c2ccc(Cl)cc12` [Compound 233, 1-(5-chloro-1H-indol-3-yl)-3-(5-chloro-6-(3-(trifluoromethyl)azetidin-1-yl)pyridin-3-yl)urea], the pEC50 was 6.70 to 7.40.

In turn, `Cc1cc(NC(=O)Nc2c[nH]c3ccc(CCO)cc23)cnc1N1CCC(F)(F)CC1` [Compound 164, 1-(6-(4,4-difluoropiperidin-1-yl)-5-methylpyridin-3-yl)-3-(5-(2-hydroxyethyl)-1H-indol-3-yl)urea] showed a pEC50 of 5.30 to 6.00.

Take `O=C(Nc1cnc(N2CCC3(CC2)CC3)c(Cl)c1)Nc1c[nH]c2cc(F)c(F)cc12` [Compound 241, 1-(5-chloro-6-(6-azaspiro[2.5]octan-6-yl)pyridin-3-yl)-3-(5,6-difluoro-1H-indol-3-yl)urea]: the pEC50 is 6.70 to 7.40.

Consider `O=C(Nc1cnn(C2CCC(F)(F)CC2)c1)Nc1c[nH]c2ccc(Cl)cc12` [Compound 209, 1-(5-chloro-1H-indol-3-yl)-3-(1-(4,4-difluorocyclohexyl)-1H-pyrazol-4-yl)urea], for which the pEC50 was 6.00 to 6.70.

On to `O=C(Nc1ccc(C2CC(F)(F)C2)c(Cl)c1)Nc1c[nH]c2ccccc12` [Compound 246, 1-(3-chloro-4-(3,3-difluorocyclobutyl)phenyl)-3-(1H-indol-3-yl)urea], for which the pEC50 is 6.70 to 7.40.

`O=C(Nc1cnc(N2CCC(F)(F)CC2)nc1)Nc1c[nH]c2cc(F)c(F)cc12` [Compound 179, 1-(5,6-difluoro-1H-indol-3-yl)-3-(2-(4,4-difluoropiperidin-1-yl)pyrimidin-5-yl)urea] had a pEC50 of 6.00 to 6.70.

`CC1(C)CN(c2ncc(NC(=O)Nc3c[nH]c4cc(F)c(F)cc34)cc2F)CCO1` [Compound 290, 1-(5,6-difluoro-1H-indol-3-yl)-3-(6-(2,2-dimethylmorpholino)-5-fluoropyridin-3-yl)urea] showed a pEC50 of 6.70 to 7.40.
